Tests used:
[1] = test system: CS-induced ALI mice; assay: CS-induced lung injury model: lung weight ratio (coefficient); assay type: in vivo, Balb/c mice; conditions: CT-NA 10 and 30 mg/kg intragastric; CS exposure; p<0.05
Procedure: Model preparation: The mice were randomly divided into 5 groups (12 mice in each group), which were the control group (the mice were exposed to fresh air), the saline group (the mice were exposed to cigarette smoke), dexamethasone (Dex) group (1 mg/kg) (the mice were exposed to cigarette smoke), CT-NA 10 mg/kg group and CT-NA 30 mg/kg group (the mice were exposed to cigarette smoke). According to the grouping, the mice were intragastrically administered saline, Dex and CT-NA, respectively. Thereafter, the mice were exposed to fresh air or cigarette smoke generated from 3R4F research-grade cigarettes (containing about 600 mg TPM/m^3 and 29.9 mg nicotine/m^3) in a cuboid plastic box (65×50x×45 cm). Ten cigarettes were burned every day for seven days. After one cigarette was burned, the next cigarette was ignited. […] 24 hrs after the last exposure to the cigarette smoke, the partial pressure of oxygen (PO2) of all mice was measured by the Moor VMS-OXY™ measuring instrument, which was used to measure the oxygenated/deoxygenated hemoglobin concentration and oxygen saturation (percentage) in the microcirculation at the wavelength range of 500 to 650 nm. […] As an index of pulmonary edema, the lung weight ratio was measured by dividing the individual lung weight of each mouse after aspirating the blood tissue from the lung surface, by the total body weight.

[2] = test system: RAW 264.7 macrophages; assay: Cell viability (MTT) assay with CSE/PGD2; assay type: cell-based, mouse; conditions: 24 hrs
Procedure: The cell lines of RAW 264.7 macrophages and mouse leukemic mononuclear macrophages were purchased from American Type Culture Collection (ATCC, Manassas, Va., USA). RAW 264.7 macrophage was cultured in RPMI-1640 medium containing penicillin (100 U/ml), streptomycin (100 μg/ml) and 10% FBS. The cytotoxicity of CT-NA (0-100 μM) alone, and in a combination of PGD2 (0-100 μM) and CSE (1-10%) on RAW264.7 macrophage was assessed using methylthiazole-tetrazole (MTT) assay according to the manufacturer's protocol. Briefly, RAW 264.7 macrophages were seeded in a 96-well plate at a concentration of 4×10^5 cells/ml for 24 hrs, and then exposed to CT-NA (0-100 μM) at 37° C. for 1 hour. Next, RAW 264.7 macrophages were further exposed to CSE (4%) and PGD2 (10 μM) for 24 hrs, and then treated with MTT (5 mg/ml) at 37° C. for 4 hrs. Then, the supernatant of each well was replaced with DMSO (200 μl/well), and the absorbance at 570 nm was measured.

[3] = test system: RAW264.7 macrophages; assay: Cell viability (MTT) assay with LPS/PGD2, RAW264.7; assay type: cell-based, mouse
Procedure: The cell lines of RAW 264.7 macrophages and mouse leukemia mononuclear macrophages were purchased from ATCC (Manassas, Va.), and cultured in RPMI-1640 medium containing penicillin (100 U/ml), streptomycin (100 μg/ml) and 10% fetal bovine serum. RAW264.7 macrophage is an excellent model for screening anti-inflammatory drugs and evaluating the inhibitor pathways that stimulated the production of pro-inflammatory cytokines and enzymes. MTT was used to determine the cytotoxicity of CT-NA alone and its combination with PGD2 and LPS on RAW264.7 macrophages and isolated peritoneal macrophages according to the manufacturer's protocol. Briefly, RAW 264.7 macrophages were plated in a 96-well plate at a concentration of 4×10^5 cells/ml for 12 hrs, and then exposed to CT-NA (0-200 μM) at 37° C. for 1 hour. Next, RAW 264.7 macrophages were further exposed to LPS (100 ng/ml) and PGD2 (10 μM) for 24 hrs, and then treated with MTT (5 mg/ml) at 37° C. for 4 hrs. Then, the supernatant of each well was replaced with DMSO (200 μl/well), and the absorbance was measured at 570 nm.

[4] = test system: isolated peritoneal macrophages; assay: RT-PCR analysis, LPS- or PGD2-stimulated peritoneal macrophages; assay type: cell-based, mice; conditions: CT-NA 10 and 100 μM, P<0.05 or P<0.01
Procedure: The method was briefly described as follows. Thioglycolate (4%) was intraperitoneally injected to mice at a dose of 20 ml/kg of body weight for three consecutive days. 48 h after the last thioglycolate injection (on day 5), the peritoneal macrophages were isolated from the peritoneal lavage of the euthanized mice. The isolated peritoneal macrophages were added to a 12-well plate (4×10^5/well) and cultured at 37° C. Non-adherent cells were removed by gently washing three times with warm PBS. At this time, more than 90% of the cells were macrophages, which were cultured in DMEM/high glucose medium containing penicillin (100 U/ml), streptomycin (100 μg/ml) and 10% FBS at 37° C. After acclimation, serum-free DMEM/high glucose was added to a 12-well plate for 10-12 hrs, and then treated with different concentrations of LPS ([…]) for 24 hrs. Afterward, the supernatant of the peritoneal macrophages was collected to measure the protein level of PGD2 using ELISA kits according to the method of the instructions.
For ELISA and RT-PCR, RAW 264.7 macrophages were acclimated to two 12-well plates at 70-80% confluence. Thereafter, the medium in the 12-well plate was replaced with serum-free RPMI-1640 medium for 10-12 hrs and then exposed to CT-NA (10 and 100 μM) for 1 hour. […]

[5] = PGD2 (10 μM) plus CT-NA up to 100 μM

Compound: CN([C@@H]1CCc2c(CC(=O)[O-])c3cccnc3n2C1)S(=O)(=O)c1ccc(F)cc1.[Na+] [Sodium salt hydrate]
- lung weight coefficient [1]: partially reduced
- cytotoxicity (MTT), CSE plus CT-NA ([2]; CSE 4% plus CT-NA up to 100 μM): non-toxic
- cytotoxicity (MTT), PGD2 plus CT-NA [2, 5]: non-toxic
- cytotoxicity (MTT), LPS plus CT-NA ([3]; LPS (100 ng/ml) plus CT-NA up to 100 μM): non-toxic
- cytotoxicity (MTT), PGD2 plus CT-NA [3, 5]: non-toxic
- mRNA expressions of IL-1β, TNF-α, IL-6 and KC, LPS-stimulated ([4]; LPS, dose-dependent): reduced
- mRNA expressions of IL-1β, TNF-α, IL-6 and KC, PGD2-stimulated ([4]; PGD2, dose-dependent): reduced
